Experimental data: patent US20050267182A1, “Urea derivatives as FLT-3 modulators” (Ambit Biosciences Corporation, priority 2003, published 2005)

Experiments:
CS0002 = experiment: Cell Assay: CS0002; assay type: cell-based; conditions: cell assay code CS0002
CS0005 = experiment: Cell Assay: CS0005; assay type: cell-based; conditions: cell assay code CS0005
FLT3 = molecular target: T1, FLT3 (Homo sapiens, UniProt P36888); experiment: Binding constant (Kd) measurement, phage-displayed kinase competition binding assay; conditions: for Binding Assay: FLT3(DKIN): FLT3(DKIN) construct; for Binding Assay: FLT3(JMminus): FLT3(JMminus) construct
T1 construct: FLT3(DKIN); made in house
T1 sequence (P36888 610-943 limits assumed): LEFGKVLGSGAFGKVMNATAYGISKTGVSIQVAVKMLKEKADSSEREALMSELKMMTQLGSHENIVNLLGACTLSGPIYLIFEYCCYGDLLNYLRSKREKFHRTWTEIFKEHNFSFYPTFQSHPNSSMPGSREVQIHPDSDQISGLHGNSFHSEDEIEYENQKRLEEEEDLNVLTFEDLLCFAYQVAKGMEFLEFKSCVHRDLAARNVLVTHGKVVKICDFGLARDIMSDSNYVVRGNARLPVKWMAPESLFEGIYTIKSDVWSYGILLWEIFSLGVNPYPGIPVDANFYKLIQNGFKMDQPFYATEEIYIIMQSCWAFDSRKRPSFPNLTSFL
Description: Binding Constant (Kd) Measurements for Small-Molecule-Kinase Interactions
The term “ND” represents non-determined values.

MV4,11 cells = experiment: FLT3 assay using MV4,11 cells (cellular proliferation, MTS); assay type: cell-based, human; conditions: cell assay code CS0001
How it was run: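 MV4,11 AML cells, […] switch to DMEM/10% FBS overnight, plated at 10,000 cells/well and exposed to serially diluted compounds in duplicate for 3 days at 37° C., 5% CO2. Proliferation read by MTS added for 2 h.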

Row | SMILES | IC50 (CS0002) | Cell Assay: CS0005:IC50 (CS0005) | Binding Assay: FLT3(DKIN) (FLT3) | Cell Assay: CS0001:IC50 (MV4,11 cells) | Binding Assay: FLT3(JMminus) (FLT3) | Cell Assay: CS0002:IC50 (CS0002)
1 | CC(C)(C)c1cc(NC(=O)Nc2ccc(NC(=O)/C=C/c3ccccc3Cl)cc2)no1 [Compound N40] | > 10 µM | + + + + | + + + + | + + + + |  | 
2 | CC(C)(C)c1cc(NC(=O)Nc2ccc(OCc3ccccc3)cc2)no1 [Compound G31] |  | + + + | + + + + | + + + + |  | 
3 | CC(C)(C)c1cc(NC(=O)Nc2ccc(NC(=O)c3cc4ccccc4cn3)cc2)no1 [Compound N106] | > 10 µM | + + + + |  |  |  | 
4 | CC(C)(C)c1cc(NC(=O)Nc2ccc(OCc3cccc(Cl)c3)cc2)no1 [Compound G11] |  | + + + | + + + + | + + + + |  | 
5 | Cn1nc(C(C)(C)C)cc1C(=O)Nc1ccc(NC(=O)Nc2cc(C(C)(C)C)on2)cc1 [Compound N10] |  | + + + | + + + + | + + + |  | 
6 | CC(C)(C)c1cc(NC(=O)Nc2ccc(NC(=O)c3ccccc3)cc2)no1 [Compound N34] |  | + + + + | + + + + | + + + + |  | 
7 | CC(C)(C)c1cc(NC(=O)Nc2ccc(OCc3ccc(-c4ccccc4)cc3)cc2)no1 [Compound G56] |  | + + + + | + + + + | + + + + |  | 
8 | CC(C)(C)c1cc(NC(=O)Nc2ccc(NC(=O)c3ccc4ccccc4c3)cc2)no1 [Compound N28] |  | + + + + | + + + + | + + + + |  | 
9 | Cn1nc(C(F)(F)F)c2cc(C(=O)Nc3ccc(NC(=O)Nc4cc(C(C)(C)C)on4)cc3)sc21 [Compound N64] | > 10 µM |  | + + + + | + + + |  | 
10 | CC(C)(C)c1cc(NC(=O)Nc2ccc(N3C(=O)c4ccccc4C3=O)cc2)no1 [Compound A57] | > 10 µM |  |  | + + + + | + + + | 
11 | CC(C)(C)c1cc(NC(=O)Nc2ccc(OCc3cccc(F)c3)cc2)no1 [Compound G14] |  | + + + | + + + + | + + + + |  | 
12 | CC(C)(C)c1cc(NC(=O)Nc2ccc(NC(=O)c3ccc(Cl)cc3)cc2)no1 [Compound N26] |  | + + + | + + | + + |  | 
13 | CC(C)(C)c1cc(NC(=O)Nc2ccc(NC(=O)c3ccccc3Cl)cc2)no1 [Compound N23] |  |  | + + + + | + + + + |  | + +
14 | CC(C)(C)c1cc(NC(=O)Nc2ccc(NC(=O)c3ccc(Oc4ccnc(C(=O)O)c4)cc3)cc2)no1 [Compound N166] |  |  |  | + + + | + + + + | + +
15 | CC(C)(C)c1cc(NC(=O)Nc2ccc(NC(=O)c3nocc3C(C)(C)C)cc2)no1 [Compound N82] |  |  |  | + + + | + + + | + +
16 | Cc1nc(-c2cccnc2)sc1C(=O)Nc1ccc(NC(=O)Nc2cc(C(C)C)on2)cc1 [Compound N48] |  |  | + + + + | + + + + |  | + +
17 | CC(C)(C)c1cc(NC(=O)Nc2ccc(NC(=O)c3nccnc3C(N)=O)cc2)no1 [Compound N138] | > 10 µM |  | + + + + | + + |  | 
18 | CC(C)(C)c1cc(NC(=O)Nc2ccc(OCc3ccccc3)cc2)on1 [Compound G30] |  |  | + + + + | + + + + |  | + +
19 | CC(C)(C)c1cc(NC(=O)Nc2ccc(NC(=O)c3cc4cc(Br)ccc4s3)cc2)no1 [Compound N17] |  |  | + + + + | + + + + |  | + +
